Common to all, as to experiment: Biological Example 3 glasshouse assay for herbicidal activity, using various adjuvant systems, post-emergence
Type in all cases: in vivo

One assay concerns Eleusine indica (ELEIN). Conditions: 8 g/ha, 14 DAA, adjuvant system per compound. The procedure: (§1) Post-emergence foliar spray application, 200 L/ha, usually one or two replicates for the weeds (depending on application rate), and two replicates for soybean.
(§2) Standard warm conditions (tropical), in glasshouse. Specifically, the glasshouse bay conditions are 24° C./18° C. day/night; 16/8 hours light/dark; 65% humidity.
(§3) The herbicidal application takes place at the following growth stages for plants which include inter alia one or more of the following plants (usually the herbicidal application takes place on at least the following six plants: DIGSA, ELEIN, SETFA, GLXMA Nikko, and GLXMA TMG133, and either BRADC or BRAPP):
Eleusine indica (ELEIN)—growth stage 12 or 13
(§4) Each test Compound is applied with one of the following adjuvant systems (all percentages are final concentrations in the aqueous spray mixture):
(§5) Adjuvant system 1: 0.5% v/v Adigor™ *, 1.0% v/v AMS (ammonium sulphate) and 12.5% v/v IPA (isopropyl alcohol).
(§6) Adjuvant system 2: 0.5% v/v Adigor™ * and 12.5% v/v IPA (isopropyl alcohol).
(§7) Adjuvant system 3: 0.5% v/v Hexamoll™ DINCH **, 1.0% v/v AMS (ammonium sulphate) and 12.5% v/v IPA (isopropyl alcohol).
(§8) Seeds of the weed plants, typically including inter alia [either Brachiaria decumbens (BRADC) or Brachiaria platyphylla (BRAPP)], Digitaria sanguinalis (DIGSA), Eleusine indica (ELEIN), Setaria faberi (SETFA) are sown in seed trays (troughs) containing clay loam soil (pH 7.0, 2.2% organic matter, “Trough Mix A”); and soybean seed is sown in pots containing the same soil with 3 soybean seedlings per pot. The plants are sprayed with the test herbicide when they reach the growth stages mentioned above.
(§9) The test herbicidal solutions are prepared by mixing the appropriate aliquots of the test substance(s) and the adjuvant system indicated above *** in deionised water to give the desired treatment concentration. […]
(§10) A visual assessment of the % herbicidal damage is made 7 and 14 Days After herbicide Application (DAA) (or, in a minority of cases, 7 and 15 DAA), and the results are recorded as % visual herbicidal damage where 0%=no damage to plants and 100%=plant totally killed. […]

Assay [1] concerns Glycine max (GLXMA, soybean) cultivar “Nikko”. Conditions: 120 g/ha, 14 or 15 DAA, adjuvant system per compound. The procedure: as §1, §2, §3
Glycine max (GLXMA, soybean) cultivar “Nikko”—growth stage: 1st trifoliate
as §4, §5
Adjuvant system 2: 0.5% v/v Adigor™ * and 12.5% v/v IPA (isopropyl alcohol). […]
as §10

In assay [2] the test system is Digitaria sanguinalis (DIGSA). To be noted: 8 g/ha, 14 DAA, 0.5% v/v Adigor + 1.0% v/v AMS + 12.5% v/v IPA. The procedure: as §1, §2, §3
Digitaria sanguinalis (DIGSA)—growth stage 12 or 13
as §4, §5, §6, §7
Seeds of the weed plants, typically including inter alia [either Brachiaria decumbens (BRADC) or Brachiaria platyphylla (BRAPP)], Digitaria sanguinalis (DIGSA), Eleusine indica (ELEIN), Setaria faberi (SETFA) are sown in seed trays (troughs) containing clay loam soil (pH 7.0, 2.2% organic matter, “Trough Mix A”); and soybean seed is sown in pots containing the same soil with 3 soybean seedlings per pot. The plants are sprayed with the test herbicide when they reach the growth stages mentioned above. […]
as §10

For another assay, the system named is Setaria faberi (SETFA). Conditions: 8 g/ha, 14 DAA, 0.5% v/v Adigor + 1.0% v/v AMS + 12.5% v/v IPA. The procedure:
as §1, §2, §3
Setaria faberi (SETFA)—growth stage 12 or 13
as §4, §5, §6, §7, §8, §9, §10

Assay [3] deals with Glycine max (GLXMA, soybean) cultivar “TMG133”. To be noted: 120 g/ha, 14 or 15 DAA, adjuvant system per compound. The procedure:
as §1, §2, §3
Glycine max (GLXMA, soybean) cultivar “TMG133”—which is Roundup Ready™glyphosate-tolerant soybean cultivar TMG133 (typically available from Monsanto in Brazil)—growth stage: 1st trifoliate.
Each test Compound is applied with one of the following adjuvant systems (all percentages are final concentrations in the aqueous spray mixture): […]
as §10
Glycine max (GLXMA, soybean) cultivar “TMG133” is Roundup Ready™ glyphosate-tolerant soybean cultivar TMG133, and is typically available from Monsanto in Brazil.

As to `CC#Cc1cc(C)c(C2C(=O)C3CCC(C3)C2=O)c(C)c1` (centres unmarked) [Compound A-5], the “percentage control of Eleusine indica (ELEIN)” value in the assay on Eleusine indica (ELEIN) was found to be 45%.
Consider `CC#Cc1cc(Cl)c(C2C(=O)CC3(CCOCC3)CC2=O)c(OC)c1` [Compound A-20, 9-(2-Chloro-6-methoxy-4-prop-1-ynyl-phenyl)-3-oxa-spiro[5.5]undecane-8,10-dione], for which the “percentage control of Eleusine indica (ELEIN)” value in the assay on Eleusine indica (ELEIN) is on record as 95%. Also, the “percentage phytotoxicities on Glycine max (GLXMA, soybean) cultivar “Nikko”” value in assay [1] came to 85%. In assay [2], the “percentage control of Digitaria sanguinalis (DIGSA)” value is 100%. The “percentage control of Setaria faberi (SETFA)” value with Setaria faberi (SETFA) is reported as 98%. Besides, in assay [3], the “percentage phytotoxicities on Glycine max (GLXMA, soybean) cultivar “TMG133”” value stood at 85%.
Regarding `CC#Cc1cc(C)c(C2C(=O)CC(CCSC)CC2=O)c(C)c1` (centres unmarked) [Compound A-21, 2-(2,6-Dimethyl-4-prop-1-ynyl-phenyl)-5-(2-methylsulfanyl-ethyl)cyclohexane-1,3-dione], the “percentage phytotoxicities on Glycine max (GLXMA, soybean) cultivar “Nikko”” value in assay [1] was found to be 85%. The “percentage phytotoxicities on Glycine max (GLXMA, soybean) cultivar “TMG133”” value in assay [3] is recorded as 85%.

The values are drawn from patent publication US9615577B2, “Herbicidally active cyclic dione compounds, or derivatives therefor, substituted by a phenyl which has an alkynyl-containing substituent” (Syngenta Limited, priority 2012, dated 2017).
